Results: patent publication US6444850B1, “Fungicidial compounds having a fluorovinyloxphyenyl moiety and process for the preparation thereof” (priority 1997, dated 2002)

Key:
Erysiphae graminis = experiment: Fungicidal activity against barley powdery mildew (BPM) disease; type: in vivo; settings: for C. V. (%), Fungicidal activities against TLB at 10 ppm: Table 9 (Test Example 6); for C. V. (%) BPM: 50 ppm, control value, barley powdery mildew
Description: Erysiphae graminis was subcultured on a wheat plant in a laboratory. 15 g of barley seeds was sowed in a pot (diameter 6.5 cm) and cultured in a greenhouse for 7 days to obtain a barley plant having only a primary leaf. The barley plant was inoculated with spores by shaking thereover another plant infected by BPM. The inoculated barley plant was cultured in an incubator maintained at a temperature of 22 to 24° C. and a relative humidity of 50% for 7 days to induce BPM. L.A. on the leaf was measured to calculate an C.V.

[1] = system: Pyricularia oryzae Carvara KA301; type: in vivo; settings: for C. V. (%) RCB: 50 ppm, control value, rice blast; for C. V. (%) Fungicidal Activities against RCB at 10 ppm / C. V. (%) Fungicidal Activities against RCB at 10 ppm (TABLE 6): sprayed on Nakdong rice plant, control value from lesion area
Phytophthora infestans = type: in vivo; settings: 50 ppm; control value, tomato late blight
Puccinia recondita = experiment: Fungicidal activity against wheat leaf rust (WLR) disease; type: in vivo; settings: for C. V. (%), Fungicidal Activities against WLB at 10 ppm: Table 8 (Test Example 5); for C. V. (%) WLR: 50 ppm, control value, wheat leaf rust
Botrytis cinerae = experiment: Fungicidal activity against cucumber gray mold rot (CGM) disease; type: in vivo; settings: 50 ppm, control value
Description: Botrytis cinerae, which was isolated from cucumber infected thereby, was inoculated on a PDA agar medium and cultured under a 12L/12D cycle at 25° C. for 15 days to form spore. The spores were scraped, filtered through a gauze and then suspended in potato dextrose liquid medium at a concentration of 1×10^6 spore/ml. The spore suspension was sprayed on a cucumber plant having one leaf. The cucumber plant was held in a humidified room at 20° C. for 3 days. L.A. on a leaf was measured to calculate an C.V.

Rhizoctonia solani AG-1 = experiment: Fungicidal activity against rice sheath blight (RSB) disease; settings: 50 ppm, control value
Description: 50 ml of the resulting solution was sprayed on leaves of a host plant. The plant was kept at room temperature for 24 hours to let the solvent evaporate, and then, a pathogenic fungus was inoculated thereonto. The plant was held in a humidity chamber for 24 hours, transferred to an plant growth room kept at 20 to 27° C. and a relative humidity of 60 to 80% and kept to induce disease. Subsequently, the lesion area(L.A.) attacked by the pathogenic fungus was measured according to a method of Cho(Cho, K. Y., Search Report by Korea Research Institute of Chemical Technology (1989))”. This procedure was repeated twice for each test. 10% Acetone solution containing 250 ppm of Tween-20 was used as a control.
The fungicidal activity of the compound of the present invention is repressed by a control value (C.V.) calculated as; [formula]
Rhizoctonia solani AG-1 was cultured on a PDA medium(potato 200 g, dextrose 20 g, agar 20 g and distilled water 1 l) for 3 days and the agar disc (diameter 0.6 cm) was inoculated and cultured on sterilized wheat bran medium in a 1 l bottle at 26 to 28° C. for 7 days. A mycelial mass was ground using a homogenizer, inoculated uniformly on soil of a pot wherein a Nakdong rice plant having 2 or 3 leaves and an height of 5 cm grew, and kept in humidity polyvinyl chamber for 5 days to induce RSB. L.A. on a leaf sheath was measured to calculate an C.V.

| Compound | C. V. (%), Fungicidal activities against TLB at 10 ppm (Erysiphae graminis) [%] | C. V. (%) BPM (Erysiphae graminis) [%] | C. V. (%) RCB [1] [%] | C. V. (%) TLB (Phytophthora infestans) [%] | C. V. (%), Fungicidal Activities against WLB at 10 ppm (Puccinia recondita) [%] | C. V. (%) WLR (Puccinia recondita) [%] | C. V. (%) CGM (Botrytis cinerae) [%] | C. V. (%) RSB (Rhizoctonia solani AG-1) [%] | C. V. (%) Fungicidal Activities against RCB at 10 ppm [1] [%] | C. V. (%) Fungicidal Activities against RCB at 10 ppm (TABLE 6) [1] [%] |
| --- | --- | --- | --- | --- | --- | --- | --- | --- | --- | --- |
| COC=C(C(=O)OC)c1ccccc1COc1cccc(OC(F)=C(c2ccc(C)cc2)C(F)(F)F)c1 [Compound 53] | 96 | 100 | 100 | 0 | 99 | 100 | 55 | 50 | – | – |
| CNC(=O)/C(=N/OC)c1ccccc1COc1cccc(OC(F)=C(c2ccc(C)c(C)c2)C(F)(F)F)c1 [Compound 66] | 100 | 100 | 98 | 18 | 100 | 100 | 0 | 40 | 100 | 100 |
| COC(=O)C(=CSC)c1ccccc1COc1cccc(OC(F)=Cc2ccc(Cl)cc2)c1 [Compound 40] | – | 93 | 73 | 33 | – | 83 | 9 | 70 | – | – |
| CCc1ccc(C(=C(F)Oc2cccc(OCc3ccccc3C(=COC)C(=O)OC)c2)C(F)(F)F)cc1 [Compound 58] | 99 | 100 | 90 | 0 | 95 | 100 | 25 | 40 | – | – |
| CON=C(C(=O)OC)c1ccccc1COc1cccc(OC(F)=C(c2ccccc2)C(F)(F)F)c1 [Compound 47] | 98 | 98 | 96 | 64 | – | 86 | 26 | 90 | – | – |
| CON=C(C(=O)OC)c1ccccc1COc1cccc(OC(F)=Cc2cccc(OC)c2)c1 [Compound 27] | 97 | 96 | 100 | 80 | – | 86 | 0 | 90 | – | – |
| COC=C(C(=O)OC)c1ccccc1COc1cccc(OC(F)=Cc2ccc(OC)cc2)c1 [Compound 29] | 90 | 99 | 93 | 56 | 99 | 100 | 28 | 90 | 92 | 92 |
| COC(=O)C(=CSC)c1ccccc1COc1cccc(OC(F)=Cc2cc(C)cc(C)c2)c1 [Compound 20] | – | 93 | 73 | 46 | – | 83 | 0 | 35 | – | – |
| COC=C(C(=O)OC)c1ccccc1COc1cccc(OC(F)=Cc2ccccc2C)c1 [Compound 5] | 94 | 99 | 95 | 50 | 95 | 100 | 0 | 95 | 94 | 94 |
| COC=C(C(=O)OC)c1ccccc1COc1cccc(OC(F)=C(c2cccc(C)c2)C(F)(F)F)c1 [Compound 49] | 100 | 100 | 95 | 0 | 95 | 100 | 41 | 50 | – | – |
| COC=C(C(=O)OC)c1ccccc1COc1cccc(OC(F)=C(c2cccc(F)c2)C(F)(F)F)c1 [Compound 92] | 99 | 100 | 93 | 81 | 100 | 100 | 16 | 55 | – | – |
| COC(=O)C(=CSC)c1ccccc1COc1cccc(OC(F)=Cc2ccc(C)c(C)c2)c1 [Compound 16] | – | 97 | 53 | 33 | – | 83 | 0 | 60 | – | – |
| COC=C(C(=O)OC)c1ccccc1COc1cccc(OC(F)=Cc2ccc(Oc3ccccc3)cc2)c1 [Compound 32] | – | 90 | 30 | 24 | – | 88 | 20 | 30 | – | – |
| CNC(=O)C(=COC)c1ccccc1COc1cccc(OC(F)=C(c2ccc(OC)cc2)C(F)(F)F)c1 [Compound 75] | – | 0 | 0 | 33 | – | 0 | 0 | 40 | – | – |
| CNC(=O)C(=COC)c1ccccc1COc1cccc(OC(F)=C(c2ccc(F)cc2)C(F)(F)F)c1 [Compound 97] | – | 33 | 0 | 22 | – | 83 | 11 | 10 | – | – |
| CNC(=O)C(=COC)c1ccccc1COc1cccc(OC(F)=Cc2ccc(C)c(C)c2)c1 [Compound 14] | – | 25 | 16 | 20 | – | 16 | 63 | 5 | – | – |
| CNC(=O)C(=COC)c1ccccc1COc1cccc(OC(F)=C(c2ccc(Cl)cc2)C(F)(F)F)c1 [Compound 89] | – | 0 | 0 | 33 | – | 33 | 22 | 25 | – | – |
| CNC(=O)C(=COC)c1ccccc1COc1cccc(OC(F)=Cc2cc(C)c(C)cc2C)c1 [Compound 22] | – | 0 | 0 | 25 | – | 0 | 0 | 26 | – | – |
| CON=C(C(=O)OC)c1ccccc1COc1cccc(OC(F)=C(c2ccc(C)cc2)C(F)(F)F)c1 [Compound 55] | 97 | 100 | 100 | 85 | – | 100 | 0 | 30 | 94 | 94 |
